From paper PMC6277434, “Discovery of a potent HMG-CoA reductase degrader that eliminates statin-induced reductase accumulation and lowers cholesterol” (Nature Communications, 2018)
Values joined by “and” are separate entries in the source; they are usually repeats but may differ in a detail not shown here. Identical values can stand only once.

Assays:
Type in all cases: in vivo
[1] = system: Ldlr−/− mice on a western diet; assay: Atherosclerosis model: Ldlr−/− mice on western diet (Sudan IV aorta lesions, TC/TG, FPLC); settings: for atherosclerotic lesions (en face Sudan IV staining of aortas), individual mice / atherosclerotic lesions (en face Sudan IV staining of aortas), mean: 60 mg/kg/day (each agent) gavage once daily 20 weeks; for aorta atherosclerotic lesions compared with vehicle / elevations of serum and liver TC and TG / serum cholesterol levels in VLDL, LDL and HDL (FPLC): 20 weeks; for aorta atherosclerotic lesions compared with vehicle: in words; for elevations of serum and liver TC and TG / serum cholesterol levels in VLDL, LDL and HDL (FPLC): Ldlr−/− mice, WD
Description: (§1) Male C57BL/6 mice (8-week-old) were obtained from Shanghai Laboratory Animal Company (SLAC) (Shanghai, China). Male Ldlr^−/− mice (8-week-old) were obtained from Nanjing Biomedical Research Institute of Nanjing University (Nanjing, China). Mice had ad libitum access to water and standard chow diet (SLAC) unless mentioned otherwise. Special diets included medium-fat-medium-cholesterol diet (chow diet with10% fat, 0.2% cholesterol and 0.5% sodium cholate, custom made in SLAC), and western diet (20% fat, 1.25% cholesterol, 0.5% sodium cholate, D12109C, Research Diets). Mice were maintained in a pathogen-free environment and kept on a 12-h light/dark schedule. Mice were gavaged as described in figure legends with saline containing 0.5% methyl cellulose and 0.5% Tween-80. All mice were used in accordance with the guidelines approved by the Institutional Animal Care and Use Committee of Wuhan University.
(§2) Mice were anesthetized and blood collection was performed. Serum was prepared from blood by centrifuging at 1500 × g for 10 min. Livers were harvested and homogenized in a 2:1 mixture of chloroform and methanol using Precellys 24 (Bertin). The organic phase was dried under N2 and liver lipids were reconstituted in ethanol. Total cholesterol and triglyceride levels in the serum and liver were determined using Cholesterol Assay Kit and Triglyceride Assay Kit (Shanghai Kehua Bio-engineering, China).
To examine aorta atherosclerotic lesions, the aortic tree was isolated and fixed with 4% PFA. After removing perivascular adipose tissues, the atherosclerotic lesions were stained with Sudan IV for 10 min and washed with 70% ethanol for 3 min. The aortic tree was pinned to the black wax-filled petri dish containing PBS and imaged under a stereoscopic microscope (Olympus SZX16). The atherosclerotic lesions were quantified with Image J software (NIH)[66].
(§3) Serum lipoproteins were separated by FPLC (AKTA, GE Healthcare) using Superdex 75 10/300 GL (GE Healthcare) column. One hundred microliters pooled serum from five mice per group was diluted with 200 μl PBS, and loaded to the column. Fractions were eluted with PBS at a constant rate of 0.2 ml min^–1, and collected with 300 μl per tube. 100 μl fractions were used to quantify the concentration of total cholesterol level with the Amplex Red Cholesterol Assay Kit (Invitrogen). The cholesterol distribution curves of lipoproteins were done with GraphPad Prism 6 software.

[2] = system: C57BL/6J mice fed MFMC diet; assay: Diet-induced hyperlipidemia: serum and liver TC/TG and FPLC lipoprotein profile in mice on MFMC diet; settings: for TC levels in liver, mean / TC levels in the serum, mean / TG levels in liver, mean / TG levels in the serum, mean / TC levels in liver, individual mice / TC levels in the serum, individual mice / TG levels in liver, individual mice / TG levels in the serum, individual mice: 60 mg/kg/day (each agent) gavage once daily 6 weeks; for TC levels in liver, individual mice / TC levels in the serum, individual mice / TG levels in liver, individual mice / TG levels in the serum, individual mice: 60 mg/kg/day; for total cholesterol (TC) and triglyceride (TG) levels in both serum and liver / cholesterol contents in VLDL, LDL and HDL (FPLC serum lipoprotein profile): 6 weeks; for total cholesterol (TC) and triglyceride (TG) levels in both serum and liver: in words; for cholesterol contents in VLDL, LDL and HDL (FPLC serum lipoprotein profile): pooled serum
Description: as §1, §2, §3

HMGCR = molecular target: T1, HMGCR (Mus musculus, UniProt Q01237); assay: Immunoblotting of hepatic HMGCR protein (liver membrane fractions) of gavaged mice
T1 construct: from tissue; host or cells: mouse liver (membrane fraction)
T1 sequence (Q01237 1-887): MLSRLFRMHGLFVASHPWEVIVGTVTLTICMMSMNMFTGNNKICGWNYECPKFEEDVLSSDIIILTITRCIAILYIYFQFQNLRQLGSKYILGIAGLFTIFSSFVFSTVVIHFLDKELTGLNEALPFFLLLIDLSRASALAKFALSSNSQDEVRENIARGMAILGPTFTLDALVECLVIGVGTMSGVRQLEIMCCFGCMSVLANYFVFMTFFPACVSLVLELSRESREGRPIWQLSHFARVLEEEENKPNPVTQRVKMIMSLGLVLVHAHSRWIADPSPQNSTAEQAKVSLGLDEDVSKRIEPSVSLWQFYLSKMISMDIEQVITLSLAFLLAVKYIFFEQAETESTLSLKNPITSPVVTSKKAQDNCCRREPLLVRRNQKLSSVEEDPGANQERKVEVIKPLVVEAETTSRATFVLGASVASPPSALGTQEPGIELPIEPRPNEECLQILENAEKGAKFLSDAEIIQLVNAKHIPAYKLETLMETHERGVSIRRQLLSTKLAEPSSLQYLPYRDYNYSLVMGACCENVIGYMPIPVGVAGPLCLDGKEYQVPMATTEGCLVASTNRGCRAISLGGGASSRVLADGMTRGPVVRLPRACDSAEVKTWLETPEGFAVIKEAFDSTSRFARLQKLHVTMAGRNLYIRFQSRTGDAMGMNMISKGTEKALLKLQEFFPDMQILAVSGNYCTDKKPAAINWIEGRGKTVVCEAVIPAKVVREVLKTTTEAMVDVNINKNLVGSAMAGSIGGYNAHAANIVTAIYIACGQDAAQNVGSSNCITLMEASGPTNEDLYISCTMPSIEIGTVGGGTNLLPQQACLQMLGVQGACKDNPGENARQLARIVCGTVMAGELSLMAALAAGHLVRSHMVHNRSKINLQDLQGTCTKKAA

Structure (SMILES)	atherosclerotic lesions (en face Sudan IV staining of aortas), individual mice [1]	atherosclerotic lesions (en face Sudan IV staining of aortas), mean [1]	aorta atherosclerotic lesions compared with vehicle [1]	elevations of serum and liver TC and TG [1]	serum cholesterol levels in VLDL, LDL and HDL (FPLC) [1]	TC levels in liver, mean [2]	TC levels in the serum, mean [2]	TG levels in liver, mean [2]	TG levels in the serum, mean [2]	TC levels in liver, individual mice [2]	TC levels in the serum, individual mice [2]	TG levels in liver, individual mice [2]	TG levels in the serum, individual mice [2]	total cholesterol (TC) and triglyceride (TG) levels in both serum and liver [2]	cholesterol contents in VLDL, LDL and HDL (FPLC serum lipoprotein profile) [2]	further results
C=CCC(O)(CC=C)CCCC(C)C1CCC2C3C(O)C=C4C(C)(C)C(O)CCC4(C)C3CCC12C (stereo not drawn) [Cmpd 81]	32.5011 and 38.2916 and 37.5217 and 25.3733 and 31	32.9375	Significantly less aorta lesions	significant effects on alleviating the elevations	remarkably reduced	3.712	104.81	12.3264	55.4414	3.732 and 3.964 and 3.655 and 3.864 and 3.346	111 and 100.379 and 112.009 and 105.661 and 95	12.9147 and 9.311 and 13.437 and 16.1354 and 9.834	60.1534 and 51.6317 and 49.6138 and 57.1457 and 58.6623	significantly lowered	reduced to similar levels	liver HMGCR protein fold change, mean (HMGCR; C57BL/6J mice, chow diet, single agent 60 mg/kg/day gavage 10 days, vehicle = 1): 0.5524; decrease of liver HMGCR amount (HMGCR; Cmpd 81 alone, 60 mg/kg/day, 10 days): 50%; decrease of liver HMGCR relative to lovastatin-treated samples (HMGCR; co-administration of Cmpd 81 with lovastatin, each 60 mg/kg/day, 10 days): > 13 fold; liver HMGCR protein fold change, mean (HMGCR; mouse, in vivo): ~ 2
CC[C@H](C)C(=O)O[C@H]1C[C@@H](C)C=C2C=C[C@H](C)[C@H](CC[C@@H]3C[C@@H](O)CC(=O)O3)[C@H]21 [Lovastatin, lovastatin]	31.5731 and 31.0783 and 37.0572 and 32.3991 and 25	31.4215	Significantly less aorta lesions	significant effects on alleviating the elevations	remarkably reduced	3.624	103.826	12.4726	54.3007	3.3 and 3.747 and 3.618 and 3.824 and 3.629	108.623 and 105.887 and 100.644 and 93.2834 and 110.692	14.0603 and 12.8492 and 8.103 and 12.4763 and 14.8742	51.0844 and 48 and 54.6444 and 61.1304 and 56.6444	significantly lowered	reduced to similar levels	hepatic HMGCR protein level, mean (HMGCR; C57BL/6J mice, 60 mg/kg/day gavage once daily 7 days, vehicle = 1, 60 mg/kg/day): 58.4 ± 3.5 fold and 58.3968 fold; hepatic HMGCR protein level, mean (HMGCR; C57BL/6J mice, 60 mg/kg/day gavage once daily 7 days, vehicle = 1, listed as lovastatin, 60 mg/kg/day): 58 fold; hepatic HMGCR protein level, individual mice (HMGCR; C57BL/6J mice, 60 mg/kg/day gavage once daily 7 days, vehicle mean = 1, 60 mg/kg/day): 61.3526 and 59.2668 and 54.571; liver HMGCR protein fold change, mean (HMGCR; C57BL/6J mice, chow diet, single agent 60 mg/kg/day gavage 10 days, vehicle = 1, listed as Lova): 32.3047; liver HMGCR protein fold change, mean (HMGCR; C57BL/6J mice, chow diet, single agent 60 mg/kg/day gavage 10 days, vehicle = 1, listed as lovastatin): more than 30
